Assay results as given in patent publication US20230104936A1, “TRPML MODULATORS” (Casma Therapeutics, Inc., priority 2019, published 2023).

Tested on: TFEB
Test: TFEB nuclear translocation assay, HeLa wt cells
Assay type: cell-based
Details: 2 hrs compound treatment, Table 1 does not say HeLa wt or TRPML1 KO
Method in brief: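 Read-out is the ratio of TFEB immunofluorescence in the nucleus to that in a ring just outside it, measured by automated imaging. HeLa wt cells received compounds for 2 hrs at 37° C before fixation and staining; AC50 values come from this ratio.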

For `CN1CC(c2ccccc2)C2(CCN(c3ccccc3NS(=O)(=O)c3ccc(S(=O)(=O)N(C)C)cc3)CC2)C1` (centres unmarked) [Compound A-302, N1,N1-dimethyl-N4-(2-{2-methyl-4-phenyl-2,8-diazaspiro[4.5]decan-8-yl}phenyl)benzene-1,4-disulfonamide], the AC50 (Homo sapiens, HeLa, 2 h) was ≥ 10000 nM.

`CC(c1cccc(F)c1N1CCC(C)(C(F)F)CC1)S(=O)(=O)c1ccc(S(=N)(=O)N(C)C)cc1` (single isomer, unassigned) [Compound A-974, 4-((1-(2-(4-(difluoromethyl)-4-methylpiperidin-1-yl)-3-fluorophenyl)ethyl)sulfonyl)-N,N-dimethylbenzenesulfonimidamide] was tested, and the AC50 was ≤ 2000 nM.

In the case of `Cc1nn(S(=O)(=O)c2ccc(S(=O)(=O)N(C)C)cc2)cc1N1CCC(c2ccc(Cl)cc2F)CC1` [Compound A-50, 4-((4-(4-(4-chloro-2-fluorophenyl)piperidin-1-yl)-3-methyl-1H-pyrazol-1-yl)sulfonyl)-N,N-dimethylbenzenesulfonamide], the AC50 (Homo sapiens, HeLa, 2 h) is reported as 2010 to 8000 nM.

`COCC1(C)CCN(c2cc(F)ccc2NS(=O)(=O)c2ccc(S(=O)(=O)N(C)C)cc2)CC1` [Compound A-694, N4-{4-fluoro-2-[4-(methoxymethyl)-4-methylpiperidin-1-yl]phenyl}-N1,N1-dimethylbenzene-1,4-disulfonamide] was tested, and the AC50 (Homo sapiens, HeLa, 2 h) was ≤ 2000 nM.

In the case of `O=S(=O)(Nc1cccc(Cl)c1N1CCOCC1)c1cccc(C2CC2)c1` [Compound A-390, N-[3-chloro-2-(morpholin-4-yl)phenyl]-3-cyclopropylbenzene-1-sulfonamide], the AC50 (Homo sapiens, HeLa, 2 h) is reported as ≤ 2000 nM.

`CC(c1ccc(F)cc1N1CCC2(CC1)COC(C)(C)C2)S(=O)(=O)c1ccc(S(=O)(=O)N(C)C)cc1` (centres unmarked) [Compound A-737, 4-[1-(2-{3,3-dimethyl-2-oxa-8-azaspiro[4.5]decan-8-yl}-4-fluorophenyl)ethanesulfonyl]-N,N-dimethylbenzene-1-sulfonamide] was tested, and the AC50 (Homo sapiens, HeLa, 2 h) was ≥ 10000 nM.

For `CN(C)S(=O)(=O)c1ccc(S(=O)(=O)Nc2ccccc2N2CCC(c3ccc(Cl)cc3F)CC2)cc1` [Compound A-23, N4-{2-[4-(4-chloro-2-fluorophenyl)piperidin-1-yl]phenyl}-N1,N1-dimethylbenzene-1,4-disulfonamide], the AC50 (Homo sapiens, HeLa, 2 h) was ≤ 2000 nM.

With `COCC1(C)CCN(c2ccccc2NS(=O)(=O)c2ccc(Cl)cc2)CC1` [Compound A-577, 4-chloro-N-{2-[4-(methoxymethyl)-4-methylpiperidin-1-yl]phenyl}benzene-1-sulfonamide] the AC50 (Homo sapiens, HeLa, 2 h) was 2010 to 8000 nM.

In the case of `CC1(C)CC2(CCN(c3ccccc3NS(=O)(=O)c3cccc(C4CC4(F)F)c3)CC2)CO1` (centres unmarked) [Compound A-687, 3-(2,2-difluorocyclopropyl)-N-(2-{3,3-dimethyl-2-oxa-8-azaspiro[4.5]decan-8-yl}phenyl)benzene-1-sulfonamide], the AC50 (Homo sapiens, HeLa, 2 h) is reported as ≤ 2000 nM.

`COCC1(C)CCN(c2ccccc2NS(=O)(=O)Cc2cccc(S(C)(=O)=O)c2)CC1` [Compound A-586, l-(3-methanesulfonylphenyl)-N-{2-[4-(methoxymethyl)-4-methylpiperidin-1-yl]phenyl}methanesulfonamide] was tested, and the AC50 (Homo sapiens, HeLa, 2 h) was 8010 to 9990 nM.

`O=S(=O)(Nc1ccccc1N1CCC(c2c(F)cccc2F)CC1)c1ccc(S(=O)(=O)N2CCOCC2)cc1` [Compound A-217, N-{2-[4-(2,6-difluorophenyl)piperidin-1-yl]phenyl}-4-(morpholine-4-sulfonyl)benzene-1-sulfonamide] was tested, and the AC50 (Homo sapiens, HeLa, 2 h) was ≤ 2000 nM.

For `CN(C)S(=O)(=O)c1ccc(S(=O)(=O)n2ccc(C3CCN(c4ncc(Cl)cc4F)CC3)n2)cc1` [Compound A-96, 4-((3-(1-(5-chloro-3-fluoropyridin-2-yl)piperidin-4-yl)-1H-pyrazol-1-yl)sulfonyl)-N,N-dimethylbenzenesulfonamide], the AC50 (Homo sapiens, HeLa, 2 h) was ≥ 10000 nM.

In the case of `O=S(=O)(Nc1cc(Cl)ccc1N1CCC2(C1)OCc1ccccc12)c1ccc2c(c1)CCC2` (centres unmarked) [Compound A-357, N-(5-chloro-2-{3H-spiro[2-benzofuran-1,3′-pyrrolidin]-1′-yl}phenyl)-2,3-dihydro-1H-indene-5-sulfonamide], the AC50 (Homo sapiens, HeLa, 2 h) is reported as ≥ 10000 nM.

`COCC1(C)CCN(c2ccccc2NS(=O)(=O)Cc2ccccc2C#N)CC1` [Compound A-610, 1-(2-cyanophenyl)-N-{2-[4-(methoxymethyl)-4-methylpiperidin-1-yl]phenyl}methanesulfonamide] was tested, and the AC50 (Homo sapiens, HeLa, 2 h) was 2010 to 8000 nM.

For `COCC1(C)CCN(c2ccccc2NS(=O)(=O)Cc2ccc(F)cc2)CC1` [Compound A-580, 1-(4-fluorophenyl)-N-{2-[4-(methoxymethyl)-4-methylpiperidin-1-yl]phenyl}methanesulfonamide], the AC50 (Homo sapiens, HeLa, 2 h) was 8010 to 9990 nM.

Compound `CCC1(N2CCN(c3ccccc3NS(=O)(=O)c3ccc(S(=O)(=O)N(C)C)cc3)CC2)COC1` [Compound A-464, N4-{2-[4-(3-ethyloxetan-3-yl)piperazin-1-yl]phenyl}-N1,N1-dimethylbenzene-1,4-disulfonamide] has an AC50 (Homo sapiens, HeLa, 2 h) of 2010 to 8000 nM.

With `CC(c1cccc(C#N)c1N1CCC(CN2C[C@@H](C)O[C@@H](C)C2)CC1)S(=O)(=O)c1ccc(S(=O)(=O)N(C)C)cc1` (single isomer, unassigned) [Compound A-845, 4-((1-(3-cyano-2-(4-((2,6-dimethylmorpholino)methyl)piperidin-1-yl)phenyl)ethyl)sulfonyl)-N,N-dimethylbenzenesulfonamide] the AC50 (Homo sapiens, HeLa, 2 h) was 2010 to 8000 nM.

For `CN(C)S(=O)(=O)c1ccc(S(=O)(=O)Nc2cccc(F)c2N2CCC3(CCNC3=O)CC2)cc1` [Compound A-792, N4-(3-fluoro-2-{1-oxo-2,8-diazaspiro[4.5]decan-8-yl}phenyl)-N1,N1-dimethylbenzene-1,4-disulfonamide], the AC50 (Homo sapiens, HeLa, 2 h) was ≥ 10000 nM.

In the case of `CN(C)S(=O)(=O)c1ccc(S(=O)(=O)C(c2cccc(F)c2N2CCCCC2)C2CC2)cc1` (single isomer, unassigned) [Compound A-982, 4-((cyclopropyl(3-fluoro-2-(piperidin-1-yl)phenyl)methyl)sulfonyl)-N,N-dimethylbenzenesulfonamide], the AC50 (Homo sapiens, HeLa, 2 h) is reported as ≤ 2000 nM.

In the case of `C[C@@H]1CN(CC2CCN(c3c(F)cccc3NS(=O)(=O)c3ccc4c(c3)OC(C)(C)C4)CC2)C[C@H](C)O1` [Compound A-780, N-[2-(4-{[(2R,6S)-2,6-dimethylmorpholin-4-yl]methyl}piperidin-1-yl)-3-fluorophenyl]-2,2-dimethyl-2,3-dihydro-1-benzofuran-6-sulfonamide], the AC50 (Homo sapiens, HeLa, 2 h) is reported as ≤ 2000 nM.

In the case of `CC(c1cccc(F)c1N1CCC(COC(C)(C)C)CC1)S(=O)(=O)c1ccc(S(=N)(=O)N(C)C)cc1` (single isomer, unassigned) [Compound A-962, 4-((1-(2-(4-(tert-butoxymethyl)piperidin-1-yl)-3-fluorophenyl)ethyl)sulfonyl)-N,N-dimethylbenzenesulfonimidamide], the AC50 is reported as ≤ 2000 nM.

`COCC1(C)CCN(c2ccccc2NS(=O)(=O)c2ccc(C(=O)C(C)C)cc2)CC1` [Compound A-641, N-{2-[4-(methoxymethyl)-4-methylpiperidin-1-yl]phenyl}-4-(2-methylpropanoyl)benzene-1-sulfonamide] showed an AC50 (Homo sapiens, HeLa, 2 h) of 8010 to 9990 nM.

With `COc1ccc(S(=O)(=O)Nc2ccccc2N2CCC(N(C)c3ccc(F)cc3F)C2)cc1` (centres unmarked) [Compound A-201, N-(2-{3-[(2,4-difluorophenyl)(methyl)amino]pyrrolidin-1-yl}phenyl)-4-methoxybenzene-1-sulfonamide] the AC50 (Homo sapiens, HeLa, 2 h) was 2010 to 8000 nM.

In the case of `O=C1COCCN1c1c(Cl)cccc1NS(=O)(=O)c1ccc2c(c1)CCC2` [Compound A-297, N-[3-chloro-2-(3-oxomorpholin-4-yl)phenyl]-2,3-dihydro-1H-indene-5-sulfonamide], the AC50 (Homo sapiens, HeLa, 2 h) is reported as ≥ 10000 nM.

`C[C@@H]1CC(OC2CCN(c3c(F)cccc3NS(=O)(=O)c3ccc(S(=O)(=O)N(C)C)cc3)CC2)C[C@H](C)O1` (stereo partly drawn) [Compound A-817, N4-[2-(4-{[(2R,6S)-2,6-dimethyloxan-4-yl]oxy}piperidin-1-yl)-3-fluorophenyl]-N1,N1-dimethylbenzene-1,4-disulfonamide] was tested, and the AC50 (Homo sapiens, HeLa, 2 h) was ≤ 2000 nM.

Compound `CC(=O)N1CCC(S(=O)(=O)Nc2ccccc2N2CCN(c3ccc(Cl)cc3F)CC2)CC1` [Compound A-17, 1-acetyl-N-{2-[4-(4-chloro-2-fluorophenyl)piperazin-1-yl]phenyl}piperidine-4-sulfonamide] has an AC50 (Homo sapiens, HeLa, 2 h) of 2010 to 8000 nM.

`CN(C)C(c1ccc(S(=O)(=O)Nc2ccccc2N2CCC(c3ccc(Cl)cc3F)CC2)cc1)C(F)(F)F` (centres unmarked) [Compound A-222, N-{2-[4-(4-chloro-2-fluorophenyl)piperidin-1-yl]phenyl}-4-[1-(dimethylamino)-2,2,2-trifluoroethyl]benzene-1-sulfonamide] was tested, and the AC50 (Homo sapiens, HeLa, 2 h) was ≤ 2000 nM.

With `Cc1ccc(S(=O)(=O)Nc2ccccc2N2[C@@H]3CC[C@H]2C[C@H](c2ccccc2F)C3)cc1` [Compound A-119, N-{2-[(1R,3S,5S)-3-(2-fluorophenyl)-8-azabicyclo[3.2.1]octan-8-yl]phenyl}-4-methylbenzene-1-sulfonamide] the AC50 (Homo sapiens, HeLa, 2 h) was ≤ 2000 nM.

Work on `CC1Cc2cc(S(=O)(=O)Nc3ccccc3N3CCN(C(=O)C(C)(C)C)CC3)ccc2O1` (centres unmarked) [Compound A-530, N-{2-[4-(2,2-dimethylpropanoyl)piperazin-1-yl]phenyl}-2-methyl-2,3-dihydro-1-benzofuran-5-sulfonamide] yielded an AC50 (Homo sapiens, HeLa, 2 h) of 2010 to 8000 nM.

For `Cc1ccc(S(=O)(=O)Nc2ccccc2N2CCC(c3ccc(Cl)cn3)CC2)cc1` [Compound A-103, N-{2-[4-(5-chloropyridin-2-yl)piperidin-1-yl]phenyl}-4-methylbenzene-1-sulfonamide], the AC50 (Homo sapiens, HeLa, 2 h) was ≤ 2000 nM.

With `CC(c1cccc(F)c1N1CCC(CN2CCC(F)(F)CC2)CC1)S(=O)(=O)c1ccc(S(=O)(=O)N(C)C)cc1` (centres unmarked) [Compound A-801, 4-((1-(2-(4-((4,4-difluoropiperidin-1-yl)methyl)piperidin-1-yl)-3-fluorophenyl)ethyl)sulfonyl)-N,N-dimethylbenzenesulfonamide] the AC50 (Homo sapiens, HeLa, 2 h) was ≤ 2000 nM.

`C[C@@H]1CN(CC2CCN(c3c(F)cccc3NS(=O)(=O)c3ccc(S(=N)(=O)N(C)C)cc3)CC2)C[C@H](C)O1` (single isomer, unassigned) [Compound A-810, Rel-N-(2-(4-((2,6-dimethylmorpholino)methyl)piperidin-1-yl)-3-fluorophenyl)-4-(N,N-dimethylsulfamidimidoyl)benzenesulfonamide] was tested, and the AC50 (Homo sapiens, HeLa, 2 h) was ≤ 2000 nM.
